# Where two headings read alike, the source gives them in different places.
# Columns and labels:
# [1] = system: C. beijerinckii ATCC 55025
# Source text: Cell growth was monitored by measuring the optical density at 600 nm (OD600) of the culture broth.
# [2] = system: E. coli; settings: 2% (v/v) butanol; cited from earlier work
# [3] = system: S. cerevisiae strains; settings: 1% (v/v) butanol; most S. cerevisiae strains; cited from earlier work
# [4] = system: P. putida; settings: several strains of P. putida; cited from earlier work
substance,measurement,setting,value
butanol,growth rate reduction,[1]; 1% (v/v) butanol,~20%
same,growth rate reduction,[1]; 1.5% (v/v) butanol,~85%
same,cell growth,"[1]; 2% (v/v) butanol, no cell growth even after 10 days incubation",completely inhibited
same,growth,[2],no growth was observed
same,relative specific growth rate,[3],60%
same,tolerated butanol concentration,[4],up to 6 % (w/v)
